Data as given in publication PMC8780964, “Evaluation of the Pharmacokinetics of the Pancreastatin Inhibitor PSTi8 Peptide in Rats: Integration of In Vitro and In Vivo Findings” (Molecules, 2022).
Entries after “also recorded” stand apart in the source; their conditions may differ. Like-named read-outs stand apart in the source and are kept apart here. Ends that are not written are not given here.

What was measured:
[1] = Equilibrium solubility in SGF and SIF; format: physicochemical
Method: The solubility of PSTi8 peptide was conducted using the equilibrium solubility method in SGF (pH 1.2) and SIF (pH 7.4). A total of 50 mg of PSTi8 was added to silanized glass vials containing 1 mL of buffer, and incubated for 1 h at 37 °C in a shaking water bath to attain equilibrium. After incubation, the samples were centrifuged for 10 min at 12,000 g, and supernatant was processed through SPE procedure and used for LC-MS/MS analysis.

Plasma stability study = format: in vitro ADME
Method: Fresh rat plasma (1 mL) was used and pre-incubated in a shaking water bath at 37 °C for 10 min. PSTi8 was added to rat plasma at a final concentration of 1 or 5 µM and then incubated for […] at 37 °C in a shaking water bath. A total of 100 µL samples were aliquoted at predetermined time points (0, 5, 15, 30, 60, 90, 120 and 240 min), followed by SPE processing and analyzed using the validated LC-MS/MS method. The plasma stability was determined as the % drug remaining at different time points relative to the drug at 0 min [19].

[2] = Microsomal metabolic stability study; format: in vitro ADME, SD rats; conditions: 5 µM
Method: RLM was prepared from SD rats from our lab, as previously reported. In vitro metabolic stability of PSTi8 was determined using RLM. The reaction milieu was prepared by adding 50 mM Tris buffer (pH 7.4), 40 mM MgCl2 pre-incubated at 37 °C along with RLM (0.5 mg/mL) and spiked at a concentration (5 µM) of PSTi8. The reaction was started with NADPH (1 mM) and without NADPH (negative control using Tris buffer). A total of 100 µL samples were collected at 0, 5, 15, 30, 45 and 60 min, and the reaction was quenched with liquid nitrogen. Samples were processed with the SPE procedure and analyzed using the LC-MS/MS method. Negative control was used to assess the peptide stability in the reaction milieu and the positive control (Testosterone, 25 µM) was incubated to obtain the microsomal activity.

[3] = Plasma protein binding, modified charcoal adsorption method; format: in vitro ADME; conditions: rat plasma
Method: The protein binding study of the PSTi8 peptide was conducted in rat plasma using the modified charcoal adsorption method. The suspension of dextran-coated charcoal (0.66%) was prepared in the DPBS buffer (pH 7.4) and stirred overnight (18 h), before the study. PSTi8 (2 µM and 5 µM) was prepared in 2.5 mL rat plasma and pre-incubated at 37 ± 0.5 °C for 15 min in a shaking water bath. The exact volume of the charcoal suspension, the same as the plasma, was centrifuged at 3000 g for 15 min to separate DPBS. The supernatant was decanted and the pre-incubated plasma was added to the charcoal pellet-containing tubes. Plasma-containing charcoal tubes were incubated under continuous stirring up to 4 h. A total of 200 µL samples were collected at the time points of 0, 5, 10, 20, 30, 45, 60, 90, 120 and 180 min, and then centrifuged at 11,000 g for 2.5 min. A total of 100 µL supernatant of the centrifuged sample was separated, extracted using SPE and analyzed with LC-MS/MS. The % peptide remaining in the supernatant plasma sample versus time points data was evaluated using the i.v. bolus two-compartment analysis model on Phoenix 6.3 WinNonlin (Pharsight Corporation, Saint Louis, MO, USA). The model is defined by the bi-exponential Equation (1):(1) B(t)=A1exp(−αt)+A2exp(−βt) where B(t) % is the bound peptide remaining at time t and where A1, A2, α and β are constants.

[4] = Stability in rat plasma in different storage conditions (bioanalytical validation); format: in vitro ADME
Method: A QTRAP-4000 AB Sciex (SCIEX, Concord, ON, Canada) mass spectrometer using an electrospray ionization source tandem with the Shimadzu UFLC system was utilized for the quantitative analysis. Quantification was performed for PSTi8 and IS with positive ionization mode, using prominent selected reaction monitoring transitions as 607.80/771.20 and 342.20/229.10 m/z, respectively. The chromatographic separation of PSTi8 and IS was accomplished on a Phenomenex Aqua 5µ 125A (250 × 4.6 mm) column using an isocratic mode of mobile phase (methanol:0.1 % formic acid, 50:50 % v/v) with 0.4 mL/min flow rate. The analysis run time was 10 min and the injection volume was 10 μL for each sample. Analyst 1.6 software was used to regulate the LC-MS/MS instrument and for data quantification. The plasma sample extraction involved the SPE procedure using MAX cartridges, as previously described. The LC-MS/MS bioanalytical assay of PSTi8 peptide was validated in rat plasma as per the USFDA bioanalytical method validation guidance. The bioanalytical method development and validation of PSTi8 in mice plasma was recently reported. The bioanalytical validation and stability studies were conducted in rat plasma, as described earlier.

[5] = set-up: method as in PMID 31891874; conditions: i.p., mice; cited from earlier work
in vivo [6] = conditions: male, SD, rat, 5 mg/kg
Method: (§1) Rats were distributed into three groups and each group contained 6 animals.
(§2) After dosing in rats, blood (250 µL) samples were collected in EDTA containing microcentrifuge tubes at 0.08, 0.16, 0.33, 0.50, 0.75, 1, 2, 3, 4, 5 and 6 h time points. Plasma was separated from the blood after centrifugation and kept in a −80 °C freezer for LC-MS/MS analysis.
(§3) The i.p. and s.c. PK were best described by a one-compartment first-order PK model without lag time. The i.v. PK was well explained by a one-compartment model with a bolus input and first-order elimination rate. The PK parameters include the elimination constant (K10), absorption constant (K01), Tmax, elimination half-life (K10-HL), absorption half-life (K01-HL), Cmax, AUC (stands for model derived AUC0-∞), CL/F, mean residence time (MRT) and Vd/F. The bioavailability of PSTi8 was determined using the ratio between the AUC from i.p. or s.c. and i.v. routes, after normalizing the dose.

in vivo [7] = conditions: male, SD, rat, ip
Method: (§4) Male SD rats were utilized in this study and distributed into two groups (each group contained 6 animals). To each group, PSTi8 was administered i.p. at a dose of 10 and 20 mg/kg in rats.
as §2
(§5) The PK parameters of PSTi8 were estimated with a one-compartmental PK model in Phoenix WinNonlin. […] The PK parameters include the elimination constant (K10), absorption constant (K01), Tmax, elimination half-life (K10-HL), absorption half-life (K01-HL), Cmax, AUC (stands for model derived AUC0-∞), CL/F, mean residence time (MRT) and Vd/F. The bioavailability of PSTi8 was determined using the ratio between the AUC from i.p. or s.c. and i.v. routes, after normalizing the dose.

in vivo [8] = conditions: female, SD, rat, ip, 5 mg/kg
Method: (§6) Female SD rats were utilized and distributed into two groups (each group contained 6 animals). To each group, a 5 mg/kg dose of PSTi8 was administered i.v. and i.p. for PK determination.
as §2
(§7) The PK parameters of PSTi8 were estimated with a one-compartmental PK model in Phoenix WinNonlin. The i.p. and s.c. PK were best described by a one-compartment first-order PK model without lag time. The i.v. PK was well explained by a one-compartment model with a bolus input and first-order elimination rate. The PK parameters include the elimination constant (K10), absorption constant (K01), Tmax, elimination half-life (K10-HL), absorption half-life (K01-HL), Cmax, AUC (stands for model derived AUC0-∞), CL/F, mean residence time (MRT) and Vd/F. The bioavailability of PSTi8 was determined using the ratio between the AUC from i.p. or s.c. and i.v. routes, after normalizing the dose.

C57Bl/6 mice = conditions: mouse, in vivo; cited from earlier work
[9] = Blood–plasma partitioning study (KRBC/PL)
Method: Fresh blood was collected from SD rats and used for the blood–plasma partitioning study. The blood was pre-incubated in a shaking water bath for 10 min at 37 ± 0.5 °C. […] During the study, the fresh rat plasma was separated from the same batch of whole blood. During the incubation time course, 250 µL aliquots of incubated whole blood samples were collected at different time points (0, 15, 30 and 60 min) and centrifuged at 10,000 g for 5 min at RT to obtain the plasma. At each time point, 100 µL aliquot of the reference plasma sample was collected. Both, 100 µL aliquot of generated plasma and reference plasma were processed and analyzed using the LC-MS/MS method. For the determination of hematocrit (Hc), heparinized whole blood (1.0 mL) was taken in a hematocrit tube and centrifuged at 2000 g for 30 min. The Hc for the whole blood was calculated by using Equation (2) [21, 22].

[10] = Dose proportionality PK study, i.p., male SD rats; conditions: for AUC(0-inf) / Cmax / Tmax / half-life: male, SD, rat, plasma, ip
Method: as §4, §2, §5

[11] = Gender difference PK study, i.v. and i.p., female SD rats
Method: as §6, §2, §7

[12] = PK and bioavailability after i.v., i.p. and s.c. administration in male SD rats; conditions: for K01 (absorption constant) / K10 (elimination constant) / half-life: male SD rats
Method: as §1, §2, §3

[13] = female, SD, rat, plasma, ip, 5 mg/kg
[14] = female, SD, rat, plasma, iv, 5 mg/kg
[15] = male, SD, rat, plasma, ip, 5 mg/kg
[16] = male, SD, rat, plasma, iv, 5 mg/kg
[17] = male, SD, rat, plasma, sc, 5 mg/kg

## PEGKGEQEHSQQKEEEEEMAV-NH2 [PSTi8]
[1]; simulated gastric fluid (SGF) pH 1.2, 37 °C
  solubility thermodynamic at 1 h: 9.3 mg/mL
[1]; simulated intestinal fluid (SIF) pH 7.4, 37 °C
  solubility thermodynamic at 1 h: 25.8 mg/mL
Plasma stability study
  stability in rat plasma (in words): high stability; also recorded: stable
Plasma stability study; 1 µM, at 4 h, rat plasma, 37 °C, read-out: plasma stability (% drug remaining)
  remaining at 4 h, 1 µM: 88.8 ± 3.39%
Plasma stability study; 5 µM, at 4 h, rat plasma, 37 °C, read-out: plasma stability (% drug remaining)
  remaining at 4 h, 5 µM: 90.6 ± 6.65%
[2]; RLM 0.5 mg/mL, NADPH 1 mM
  stability in rat liver microsomes (in words): stable; also recorded: high stability
[2]; RLM, without NADPH
  degradation in negative control experiment: no degradation
[3]; 2 µM
  fraction unbound at 2 µM: 0.264
[3]; 5 µM
  fraction unbound at 5 µM: 0.307
[3]; summary in abstract
  fraction unbound: < 0.31
[4]; 0 h (for all), nominal 30 ng/mL
  Accuracy (%) of stability sample: 102.34%
[4]; 0 h (for all), nominal 400 ng/mL
  Accuracy (%) of stability sample: 101.56%
[4]; 0 h (for all), nominal 800 ng/mL
  Accuracy (%) of stability sample: 101.70%
[4]; Autosampler (4 °C, 12 h), nominal 30 ng/mL
  Accuracy (%) of stability sample: 112.60%
[4]; Autosampler (4 °C, 12 h), nominal 400 ng/mL
  Accuracy (%) of stability sample: 94.13%
[4]; Autosampler (4 °C, 12 h), nominal 800 ng/mL
  Accuracy (%) of stability sample: 99.90%
[4]; Bench-top (2 h), nominal 30 ng/mL
  Accuracy (%) of stability sample: 96.27%
[4]; Bench-top (2 h), nominal 400 ng/mL
  Accuracy (%) of stability sample: 96.17%
[4]; Bench-top (2 h), nominal 800 ng/mL
  Accuracy (%) of stability sample: 106.70%
[4]; Bench-top (6 h), nominal 30 ng/mL
  Accuracy (%) of stability sample: 103.47%
[4]; Bench-top (6 h), nominal 400 ng/mL
  Accuracy (%) of stability sample: 93.00%
[4]; Bench-top (6 h), nominal 800 ng/mL
  Accuracy (%) of stability sample: 97.97%
[4]; Long term (-80°C, 30 days), nominal 30 ng/mL
  Accuracy (%) of stability sample: 110.13%
[4]; Long term (-80°C, 30 days), nominal 400 ng/mL
  Accuracy (%) of stability sample: 102.87%
[4]; Long term (-80°C, 30 days), nominal 800 ng/mL
  Accuracy (%) of stability sample: 108.03%
[4]; Three freeze-thaw cycles, nominal 30 ng/mL
  Accuracy (%) of stability sample: 101.30%
[4]; Three freeze-thaw cycles, nominal 400 ng/mL
  Accuracy (%) of stability sample: 106.30%
[4]; Three freeze-thaw cycles, nominal 800 ng/mL
  Accuracy (%) of stability sample: 108.77%
[4]; storage conditions of Table S2
  stability in rat plasma with diverse storage conditions (in words): stable
[5]
  bioavailability: 52%
In vivo [6]; ip
  CL/F: 10.3 mL/min/kg
  Vd/F: 0.39 ± 0.06 L/kg
In vivo [6]; sc
  CL/F: 12.8 mL/min/kg
  Vd/F: 0.46 ± 0.09 L/kg
In vivo [7]; 10 mg/kg
  CL/F: 5.17 mL/min/kg
  Vd/F: 0.26 ± 0.09 L/kg
In vivo [7]; 20 mg/kg
  CL/F: 3.17 mL/min/kg
  Vd/F: 0.15 ± 0.03 L/kg
In vivo [8]
  CL/F: 9.5 mL/min/kg
  Vd/F: 0.26 ± 0.01 L/kg
C57Bl/6 mice
  toxicity finding: safe and non-toxic
[9]; 0.206 µM, time not given
  RBC:plasma partition coefficient (KRBC/PL): 2.46 ± 0.44
[9]; summary in abstract
  blood–plasma partitioning: > 2
[10]; i.p. 10 mg/kg, male SD rats
  K01 (absorption constant): 4.89 ± 1.74 h⁻¹
  K10 (elimination constant): 1.33 ± 0.60 h⁻¹
[10]; i.p. 20 mg/kg, male SD rats
  K01 (absorption constant): 4.94 ± 0.97 h⁻¹
  K10 (elimination constant): 1.26 ± 0.18 h⁻¹
[10]; i.p. 10 and 20 mg/kg, male SD rats
  PK pattern in dose proportionality study: non-linear PK; also recorded: non-linear pharmacokinetics
[10]; 10 mg/kg
  AUC(0-inf): 32400 ng·h/mL
  Cmax: 24300 ng/mL
  Tmax: 22.8 min
[10]; 10 mg/kg, K01-HL (absorption half-life), i.p. 10 mg/kg, male SD rats
  half-life: 9 ± 3 min
[10]; 10 mg/kg, K10-HL (elimination half-life), i.p. 10 mg/kg, male SD rats
  half-life: 35.4 ± 13.8 min
[10]; 20 mg/kg
  AUC(0-inf): 111000 ng·h/mL
  Cmax: 85600 ng/mL
  Tmax: 22.8 min
[10]; 20 mg/kg, K01-HL (absorption half-life), i.p. 20 mg/kg, male SD rats
  half-life: 8.4 ± 1.8 min
[10]; 20 mg/kg, K10-HL (elimination half-life), i.p. 20 mg/kg, male SD rats
  half-life: 33.6 ± 5.4 min
[11]; [13]
  AUC: 9980 ± 523 ng·h/mL
  AUC(0-inf): 8820 ± 589 ng·h/mL
  Cmax: 7000 ± 216 ng/mL
  Tmax: 28.8 min
  bioavailability: 91.9 ± 6.14%
  half-life: 19.2 ± 1.2 min
[11]; [14]
  AUC(0-inf): 9590 ± 1750 ng·h/mL
  Cmax: 42600 ng/mL
  MRT: 13.2 ± 1.2 min
  half-life: 9.6 ± 1.2 min
[11]; i.p. 5 mg/kg, female SD rats
  K01 (absorption constant): 2.14 ± 0.12 h⁻¹
  K10 (elimination constant): 2.19 ± 0.18 h⁻¹
  K10-HL (elimination half-life): 0.32 ± 0.02 h
[11]; i.v. 5 mg/kg, female SD rats
  K10 (elimination constant): 4.50 ± 0.48 h⁻¹
[11]; male vs female SD rats, 5 mg/kg i.p. and i.v., 5 mg/kg
  gender difference in PK parameters and bioavailability: no gender differences; also recorded: no significant difference
[12]; i.p. 5 mg/kg
  K01 (absorption constant): 2.90 ± 0.89 h⁻¹
  K10 (elimination constant): 1.63 ± 0.33 h⁻¹
[12]; i.v. 5 mg/kg
  K10 (elimination constant): 3.79 ± 2.19 h⁻¹
[12]; [15]
  AUC(0-inf): 8100 ± 1040 ng·h/mL
  Cmax: 6050 ± 348 ng/mL
  Tmax: 28.8 min
  bioavailability: 95 ± 12.2%
[12]; male, SD, rat, plasma, ip, 5 mg/kg, K01-HL (absorption half-life), i.p. 5 mg/kg
  half-life: 15.6 ± 5.4 min
[12]; male, SD, rat, plasma, ip, 5 mg/kg, K10-HL (elimination half-life), i.p. 5 mg/kg
  half-life: 26.4 ± 6 min
[12]; [16]
  AUC(0-inf): 8530 ± 1600 ng·h/mL
  Cmax: 30200 ± 14600 ng/mL
  MRT: 21.6 ± 15.6 min
[12]; male, SD, rat, plasma, iv, 5 mg/kg, K10-HL (elimination half-life), i.v. 5 mg/kg
  half-life: 15 ± 10.8 min
[12]; [17]
  AUC(0-inf): 6690 ± 1510 ng·h/mL
  Cmax: 4110 ± 888 ng/mL
  Tmax: 36 min
  bioavailability: 78.5 ± 17.7%
[12]; male, SD, rat, plasma, sc, 5 mg/kg, K01-HL (absorption half-life), s.c. 5 mg/kg
  half-life: 24.6 ± 0.6 min
[12]; male, SD, rat, plasma, sc, 5 mg/kg, K10-HL (elimination half-life), s.c. 5 mg/kg
  half-life: 25.2 ± 0.24 min
[12]; s.c. 5 mg/kg
  K01 (absorption constant): 1.68 ± 0.02 h⁻¹
  K10 (elimination constant): 1.66 ± 0.01 h⁻¹
